Test results from PubChem BioAssay (NCI).
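The concentration for 50% growth inhibition is given as GI50. TGI denotes the concentration required for complete inhibition of growth.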

Assays:
Experiment in all cases: NCI tumour cell line growth inhibition, 384-well format
NCI-H322M lung = test system: NCI-H322M lung
SK-MEL-2 melanoma = test system: SK-MEL-2 melanoma
HCT-116 colon = test system: HCT-116 colon
U251 glioblastoma = test system: U251 glioblastoma
UACC-257 melanoma = test system: UACC-257 melanoma
HS 578T breast = test system: HS 578T breast
786-0 renal = test system: 786-0 renal
SF-295 CNS = test system: SF-295 CNS
SN12C renal = test system: SN12C renal
NCI-H226 lung = test system: NCI-H226 lung
NCI-H522 lung = test system: NCI-H522 lung
T-47D breast = test system: T-47D breast
SNB-75 CNS = test system: SNB-75 CNS
HCT-15 colon = test system: HCT-15 colon
CAKI-1 renal = test system: CAKI-1 renal
DU-145 prostate = test system: DU-145 prostate
UACC-62 melanoma = test system: UACC-62 melanoma
NCI-H23 lung = test system: NCI-H23 lung
HOP-62 NSCLC = test system: HOP-62 NSCLC
OVCAR-3 ovarian = test system: OVCAR-3 ovarian
OVCAR-5 ovarian = test system: OVCAR-5 ovarian
HT29 colon = test system: HT29 colon
MDA-MB-435 melanoma = test system: MDA-MB-435 melanoma
PC-3 prostate = test system: PC-3 prostate
SR leukemia = test system: SR leukemia
SNB-19 CNS = test system: SNB-19 CNS
IGROV1 ovarian = test system: IGROV1 ovarian
OVCAR-4 ovarian = test system: OVCAR-4 ovarian

COc1cccc2c1nc(C(F)F)n2-c1nc(-c2ccc(NS(=O)(=O)CCN(C)C)cc2)nc(N2CCOCC2)n1
GI50 (NCI-H322M lung): 151 nM
TGI (NCI-H322M lung): 1090 nM
GI50 (SK-MEL-2 melanoma): 282 nM
TGI (SK-MEL-2 melanoma): 1540 nM
GI50 (HCT-116 colon): 320 nM
TGI (HCT-116 colon): 1510 nM
GI50 (U251 glioblastoma): 1020 nM
TGI (U251 glioblastoma): 2200 nM
GI50 (UACC-257 melanoma): 292 nM
TGI (UACC-257 melanoma): 1360 nM
GI50 (HS 578T breast): 92.1 nM
TGI (HS 578T breast): 377 nM
GI50 (786-0 renal): 491 nM
TGI (786-0 renal): 1690 nM
GI50 (SF-295 CNS): 161 nM
TGI (SF-295 CNS): 1100 nM
GI50 (SN12C renal): 229 nM
TGI (SN12C renal): 12.4 µM
GI50 (NCI-H226 lung): 195 nM
TGI (NCI-H226 lung): 873 nM
GI50 (NCI-H522 lung): 98.7 nM
TGI (NCI-H522 lung): 689 nM
GI50 (T-47D breast): 24 nM
TGI (T-47D breast): 120 nM
GI50 (SNB-75 CNS): 29.6 nM
TGI (SNB-75 CNS): 361 nM
GI50 (HCT-15 colon): 300 nM
TGI (HCT-15 colon): 1450 nM
GI50 (CAKI-1 renal): 200 nM
TGI (CAKI-1 renal): 1420 nM
GI50 (DU-145 prostate): 263 nM
TGI (DU-145 prostate): 1390 nM
GI50 (UACC-62 melanoma): 206 nM
TGI (UACC-62 melanoma): 1250 nM
GI50 (NCI-H23 lung): 148 nM
TGI (NCI-H23 lung): 1040 nM
GI50 (HOP-62 NSCLC): 285 nM
TGI (HOP-62 NSCLC): 1420 nM
GI50 (OVCAR-3 ovarian): 138 nM
TGI (OVCAR-3 ovarian): 1110 nM
GI50 (OVCAR-5 ovarian): 266 nM
TGI (OVCAR-5 ovarian): 5.44 µM
GI50 (HT29 colon): 238 nM
TGI (HT29 colon): 1470 nM
GI50 (MDA-MB-435 melanoma): 255 nM
TGI (MDA-MB-435 melanoma): 1390 nM
GI50 (PC-3 prostate): 122 nM
TGI (PC-3 prostate): 1200 nM
GI50 (SR leukemia): 153 nM
TGI (SR leukemia): 408 nM
GI50 (SNB-19 CNS): 3.8 µM
TGI (SNB-19 CNS): 22.1 µM
GI50 (IGROV1 ovarian): 24.9 nM
TGI (IGROV1 ovarian): 96.3 nM
GI50 (OVCAR-4 ovarian): 144 nM
